Measurements: patent US10329294B2, “Pyrazolopyrimidine inhibitors of IRAK4 activity” (MERCK SHARP & DOHME CORP., priority 2015, dated 2019)
Where a name gives a salt, the structure may show the parent alone.

Target: IRAK4 (Homo sapiens (Human), UniProt Q9NWZ3)
Experiment: IRAK4 Kinase Assay
Assay type: biochemical
Settings: IMAP fluorescence polarization, 0.5 nM GST tagged IRAK4, 100 μM ATP, 30 minutes at 25° C.; read-out: IRAK4 IC50

Sequence of IRAK4 (Q9NWZ3 whole entry): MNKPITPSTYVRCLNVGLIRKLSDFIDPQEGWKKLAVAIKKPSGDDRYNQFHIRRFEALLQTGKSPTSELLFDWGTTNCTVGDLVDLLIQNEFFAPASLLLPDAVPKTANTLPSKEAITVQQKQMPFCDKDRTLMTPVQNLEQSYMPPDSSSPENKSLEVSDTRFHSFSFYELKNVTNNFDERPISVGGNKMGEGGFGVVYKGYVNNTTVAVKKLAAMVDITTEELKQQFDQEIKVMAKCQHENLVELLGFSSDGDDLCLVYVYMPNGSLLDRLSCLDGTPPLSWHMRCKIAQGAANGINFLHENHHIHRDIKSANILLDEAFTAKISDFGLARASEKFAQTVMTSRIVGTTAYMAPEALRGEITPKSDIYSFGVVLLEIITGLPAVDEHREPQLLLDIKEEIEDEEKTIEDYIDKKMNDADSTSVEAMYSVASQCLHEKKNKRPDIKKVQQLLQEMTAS

SMILES	IC50
O=C(Nc1ccccc1C(F)(F)F)c1cnn2ccc(N3CC4CCC3CN4)nc12 (stereo not drawn) [Example 115, 5-(2,5-diazabicyclo[2.2.2]oct-2-yl)-N-[2-(trifluoromethyl)phenyl] pyraozlo[1,5-a]pyrimidine-3-carboxamide trifluoroacetate]	5600 nM
Cn1cc(NC(=O)c2cnn3ccc(NC4CNCCC4F)nc23)c(C(F)F)n1 (single isomer, unassigned) [Example 237, N-[3-(difluoromethyl)-1-methyl-1H-pyrazol-4-yl]-5-[(3R or S, 4R or S-4-fluoropiperidin-3-yl)amino]pyrazolo[1,5-a]pyrimidine-3-carboxamide]	0.6 nM
Cn1cc(NC(=O)c2cnn3ccc(N[C@@H]4CCCCC[C@@H]4N)nc23)c(C(F)(F)F)n1 (single isomer, unassigned) [Example 54, 5-{[(1R,2S)- or (1S,2R)-2-aminocycloheptyl]amino}-N-[1-methyl-3-(trifluoromethyl)-1H-pyrazol-4-yl]pyrazolo[1,5-a]pyrimidine-3-carboxamide]	63 nM
O=C(Nc1ccsc1C(F)(F)F)c1cnn2ccc(N3CC4CCC3CN4)nc12 (stereo not drawn) [Example 147, 5-(2,5-diazabicyclo[2.2.2]oct-2-yl)-N-[2-(trifluoromethyl)thiophen-3-yl]pyrazolo[1,5-a]pyrimidine-3-carboxamide trifluoroacetate]	979 nM
N[C@H]1CCCC[C@H]1Nc1ccn2ncc(C(=O)Nc3ccccc3C(F)(F)F)c2n1 [Example 38, 5-{[(1R,2S)-2-aminocyclohexyl]amino}-N-[2-(trifluoromethyl)phenyl] pyrazolo[1,5-a]pyrimidine-3-carboxamide trifluoroacetate]	16 nM
Cn1cc(NC(=O)c2cnn3ccc(N4CC5CC4CCN5)nc23)c(C(F)(F)F)n1 (stereo not drawn) [Example 74, 5-(2,6-diazabicyclo[3.2.1]oct-6-yl)-N-[1-methyl-3-(trifluoromethyl)-1H-pyrazol-4-yl]pyrazolo[1,5-a]pyrimidine-3-carboxamide trifluoroacetate]	41 nM
O=C(Nc1ccccc1Br)c1cnn2ccc(N[C@@H]3CCCC[C@@H]3O)nc12 [Example 195, N-(2-bromophenyl)-5-{[(1R,2S)-2-hydroxycyclohexyl]amino} pyrazolo[1,5-a]pyrimidine-3-carboxamide]	2930 nM
Cn1cc(NC(=O)c2cnn3ccc(N[C@H]4CCCCNC4)nc23)c(C(F)(F)F)n1 (single isomer, unassigned) [Example 159, 5-[(3S)- or (3R)-azepan-3-ylamino]-N-[1-methyl-3-(trifluoromethyl)-1H-pyrazol-4-yl]pyrazolo[1,5-a]pyrimidine-3-carboxamide trifluoroacetate]	18 nM
N[C@H]1CCCC[C@H]1Nc1ccn2ncc(C(=O)Nc3ccsc3Br)c2n1 [Example 129, 5-{[(1R,2S)-2-aminocyclohexyl]amino}-N-(2-bromothiophen-3-yl)pyrazolo[1,5-a]pyrimidine-3-carboxamide trifluoroacetate]	2 nM
N[C@@H]1[C@H](Nc2ccn3ncc(C(=O)Nc4ccsc4Cl)c3n2)CCCC1(F)F [Example 190, 5-{[(1R,2R)-2-amino-3,3-difluorocyclohexyl]amino}-N-(2-chlorothiophen-3-yl)pyrazolo[1,5-a]pyrimidine-3-carboxamide]	891 nM
Cn1cc(NC(=O)c2cnn3ccc(N[C@H]4CCCCC[C@H]4N)nc23)c(C(F)(F)F)n1 (relative stereo) [Example 33, 5-{[cis-2-aminocycloheptyl]amino}-N-[1-methyl-3-(trifluoromethyl)-1H-pyrazol-4-yl]pyrazolo[1,5-a]pyrimidine-3-carboxamide]	2 nM
Cn1cc(NC(=O)c2cnn3ccc(N4CCCNC5(CC5)C4)nc23)c(C(F)(F)F)n1 [Example 227, 5-(4,8-diazaspiro[2.6]non-8-yl)-N-[1-methyl-3-(trifluoromethyl)-1H-pyrazol-4-yl]pyrazolo[1,5-a]pyrimidine-3-carboxamide]	451 nM
